Measurements: patent publication US7015248B2, “Use of abietic acid and derivatives thereof for inhibiting cancer” (Xiamen Ever-Health Bio-Tech. Co. Ltd, priority 2002, dated 2006)
Where two headings read alike, the source gives them in different places.

What was measured:
[1] = tested on: MCF-7 breast cancer cell line; format: in vivo; conditions: 0.02667 mg per gram body weight by gastric pipe per two days; for Average maximum diameter: 8 mice
Method: Eighty Balb/c-nu/nu female nude mice, supplied by National Laboratory Animal Center in the ROC (Taiwan), four-week old, weight about 18 to 20 g, free of pinworm infection, were housed in the laboratories of the National Yang-Ming University, Taipei, ROC (Taiwan). Clear water and feeds were normally provided. The litters were replaced with new ones per three days. On the other hand, a MCF-7 breast cancer cell line was cultured under standard conditions.
Since the nude mice were five weeks old, the nude mice were intramuscularly injected with 1.7 mg of estradiol valerate at their leg regions. On the other hand, the MCF-7 cells were treated with estradiol for 24 hours, and then trypsinized, centrifuged and recovered in the Minimum Essential Medium (MEM) medium to achieve a concentration of 2×10^7 cell/ml.
After two days following the intramuscular injection of estradiol valerate, the nude mice were subcutaneously injected with 500 μl of the estradiol-treated MCF-7 cells (2×10^7 cell/ml) at their back regions. Once injection, the back regions swelled but became even later.
After three weeks following the injection of the MCF-7 cells, a subcutaneous tumor of 2 mm in a maximum diameter was developed at the backs of the nude mice.
These tumor containing nude mice were divided into two groups, each including 8 mice. One of the two groups were fed normally as a control group. The mice of the other group were fed with abietic acid at a dosage of 0.02667 mg per gram of the body weight of the nude mice by a gastric pipe per two days for a period of more than 12 weeks (experimental group).
The maximum diameter of the tumor on the back of each nude mouse of the control group and the experimental group were recorded, as shown in Table 1 and FIG. 3.

[2] = target: lipoxygenase pathway; conditions: Ulusu et al., 2002; read-out: IC50 of inhibition of lipoxygenase pathway; cited from earlier work
[3] = tested on: plasma membrane of the cell; experiment: electrophysiological experiments and dye-permeability assays; format: cell-based
Method: In addition, to further study the mechanisms underlying the swelling phenomenon of a cell, electrophysiological experiments and dye-permeability assays were conducted to measure the permeability of a plasma membrane of the cell.

[4] = tested on: prostaglandin E2; conditions: lipopolysaccharide-treated macrophages; Fernandez et al., 2001; cited from earlier work
[5] = tested on: HeLa cells, a human epithelioid cervical carcinoma cell line; experiment: video-enhanced DIC microscopy of cell morphology, HeLa cells; format: cell-based
Method: (§1) For evaluation of the biological activities of abietic acid on mammalian cells, a time-lapsed recording using video-enhanced DIC microscopy on a variety of cultured cells, including cancerous and non-cancerous cell lines, before and after addition of abietic acid, was performed.
(§2) Abietic acid may be extracted by any conventional methods. In one embodiment of the invention, abietic acid was extracted according to the method described in Luong J H et al., 1999, Electrophoresis. 20(7): 1546–54, and an abietic acid stock solution at a concentration of 150 μg/ml was prepared subsequently.
HeLa cells, a human epithelioid cervical carcinoma cell line, were cultured in a standard medium under standard conditions. The HeLa cells were trypsinized and a cell suspension at a concentration of 10^5 cells per milliliter of medium was prepared therefrom. The cell suspension was poured into a 22×22 mm coverglass and treated without abietic acid or with the abietic acid stock solution to achieve a final concentration of 0.3 μg/ml (1/500 dilution), 0.15 μg/ml (1/1000 dilution) or 0.03 μg/ml (1/5000 dilution), respectively.
(§3) It has been known that the morphology of a cell reflects the healthy condition of the cell. For instance, once a cell, which is normally attached to a substrate with a flat morphology, swells and becomes round in morphology, it means that the condition of the cell turns disadvantageous and the cell may stop the growth and be dead soon.

[6] = tested on: Hep-G2 human hepatocellular carcinoma cell line; experiment: combination with mitomycin C on Hep-G2 cells; format: cell-based; conditions: in combination with mitomycin C
[7] = tested on: HepG2 cells, a human heptocellular carcinoma cell line; experiment: DIC microscopy of cell morphology, HepG2 cells; format: cell-based; conditions: for morphology of HepG2 cells: 24-hour incubation
Method: as §1, §2
HepG2 cells, a human heptocellular carcinoma cell line, were cultured in a standard medium under standard conditions. The HepG2 cells were trypsinized and a cell suspension at a concentration of 10^5 cells per milliliter of medium was prepared therefrom. The cell suspension was poured into a 22×22 mm coverglass and treated without abietic acid or with 0.3, 0.15 or 0.03 μg/ml abietic acid, respectively, as described above.
as §3

[8] = tested on: breast cancer cells such as MCF-7 or T-47D; conditions: Mellanen et al., 1996; cited from earlier work
[9] = MTT (mitochondrial activity) assay of cell proliferation; format: cell-based
Description: A MTT (mitochondrial activity) assay was used to determine a cell proliferation.

[10] = tested on: MCF-7 breast cancer cell line; experiment: combination with taxol against MCF-7 cells; format: cell-based; conditions: in combination with taxol
[11] = tested on: Detroit 551 normal fibroblast cells; experiment: DIC microscopy of cell morphology, Detroit 551 normal fibroblast cells; format: cell-based
Method: as §1, §2
Detroit 551 normal fibroblast cells were treated without abietic acid or with abietic acid, as described above. The morphology of the normal fibroblast cells was affected when treated with 0.15 and 0.3 μg/ml abietic acid.
as §3

CC(C)C1=CC2=CC[C@@H]3[C@](C)(CCC[C@@]3(C)C(=O)O)[C@H]2CC1 [abietic acid]
average maximum diameter of the tumor in comparison with mice without treatment ([1]; 12 weeks): significantly reduced
survival of mice to the end of the period ([1]; more than 12 weeks): all the mice were alive
Average maximum diameter ([1]; week 1): 0.587 cm
Average maximum diameter ([1]; week 3): 0.675 cm
Average maximum diameter ([1]; week 6): 0.700 cm
Average maximum diameter ([1]; week 9): 0.787 cm
Average maximum diameter ([1]; week 12): 0.800 cm
IC50 [2]: 29.5 ± 1.29 µM
permeability of a plasma membrane [3]: direct effect on influx and efflux of chemicals across the cell membrane
production of prostaglandin E2 [4]: inhibit the production of the inflammatory mediator, prostaglandin E2
morphology of HeLa cells ([5]; 0.03, 0.15 and 0.3 μg/ml, 24-hour incubation): serious swelling phenomenon
concentration effective to induce a swelling phenomenon ([5]; HeLa cell line): 0.03 µg/mL
growth of cancer cells after swelling ([5]; HeLa cells, about 24 hours exposure, relatively low concentration): inhibition of the growth and the death of the cancer cells
effect on efficacy of mitomycin C on growth [6]: accelerate the efficacy of mitomycin C
morphology of HepG2 cells ([7]; 0.03 μg/ml): different morphology
morphology of HepG2 cells ([7]; 0.15 and 0.3 μg/ml): swelled
concentration effective to induce a swelling phenomenon ([7]; HepG2 cell line): 0.03 µg/mL
growth of cancer cells after swelling ([7]; HepG2 cells, about 24 hours exposure, relatively low concentration): inhibition of the growth and the death of the cancer cells
estrogenic effect [8]: estrogenic
cell proliferation / mitosis ([9]; abietic acid by itself): inhibit cell mitosis in a dose-dependent manner
effect on killing effects of anti-cancer drugs ([9]; in combination with a variety of anti-cancer drugs): significantly enhanced the killing effects of a variety of anti-cancer drugs
effect on inhibitory activity of taxol [10]: enhance the inhibitory activity of taxol
morphology of normal fibroblast cells ([11]; 0.03 μg/ml): normal and flat morphology
morphology of normal fibroblast cells ([11]; 0.15 and 0.3 μg/ml): affected
concentration that affects the morphology of a normal fibroblast cell ([11]; Detroit 551): higher than 0.15 μg/ml
morphology and growth of normal fibroblast cells ([11]; about 24 hours exposure at the same concentration): remained flat in morphology and grew well
